≈ marks a conversion by molar mass, not a printed value.
Columns and labels:
Otodectes cynotis = assay: Spot-on efficacy against Otodectes cynotis (ear mites) in cats (Example 12); assay type: in vivo; details: live mite count Day 14
Protocol: The efficacy of two spot-on compositions comprising Compound A at doses of 5 mg/kg and 10 mg/kg against Otodectes cynotis in cats was evaluated compared to an untreated control. Eighteen healthy cats were grouped into three study groups consisting of six cats per group. Cats in the treatment groups were infested with Otodectes cynotis obtained from naturally infested donor cats prior to acclimation on Day −7. Group 1 was an untreated control group. Cats in Groups 2 and 3 were treated once on Day 0 with a spot-on composition comprising Compound A at two different concentrations and doses by application of the formulation directly on the skin in the midline of the neck between the base of the skull and the shoulder blades with a 1 mL disposable syringe. Cats in Group 2 were treated with a spot-on composition containing 5.0% (w/v) Compound A in a carrier containing 40% (v/v) diethyl sebacate (DES) in dimethylisosorbide (DMI) at a dose of 5 mg/kg body weight; and cats in Group 3 were treated with a spot-on composition containing 10.0% (w/v) Compound A in a carrier containing 40% (v/v) DES in DMI at a dose of 10 mg/kg body weight. […] Visible live ear mites (adult or immature) were counted and debris/cerumen level was estimated for both ear ducts. A quantitative assessment of ear mites by ear duct flushing, mite collection and live mite count was performed on Day 14. […]

Haematobia irritans = assay: Pour-on efficacy against Haematobia irritans (horn fly) in cattle (Example 14); assay type: in vivo; details: Group 2: pour-on 10% in DES, 1 ml/10 kg
Ctenocephalides felis = assay: Spot-on efficacy against Ctenocephalides felis fleas on dogs, 40% DES/DMI (Example 5); assay type: in vivo; details: 4.0 mg/kg
Protocol: The efficacy of a formulation comprising an isoxazoline compound (Cmpd. A) in a carrier comprising 40% DES/DMI against Ctenocephalides felis fleas and Rhipicephalus sanguineus ticks in Dogs was studied. […] Three treatment groups containing three dogs each were evaluated. All dogs were treated once topically on Day 0 by parting the hair and applying the solution from a syringe directly onto the skin in a single spot on the midline of the neck between the base of the skull and the shoulder blades.
Treatment Group 1 was a placebo control and received 0.067 mL/kg of body weight. Treatment Group 2 was administered a topical spot-on formulation comprising 6.0% (w/v) Cmpd. A in 40% DES/DMI to deliver a dose of 4.0 mg/kg body weight. Treatment Group 3 was administered a topical spot-on formulation comprising 12% (w/v) Cmpd. A in 40% DES/DMI to deliver a dose of 4.0 mg/kg body weight.
All dogs were infested with approximately 100 C. felis on Days −1, 7, 14, 21, 28, 35 and 42. Fleas were counted upon removal from dogs approximately 24 hours post infestation on Days 1, 8, 15, 22, 29, 36 and 43. The % reduction (efficacy) of each Treatment Group over time is listed in Tables 6A, 6B and 7, respectively.

Ixodes ricinus = assay: Spot-on efficacy against induced Ixodes ricinus tick infestations in cats (Example 10); assay type: in vivo; details: for prevention of the infestation of I. ricinus: 2.5% w/v in DMI
Protocol: The efficacy of spot-on formulations comprising Cmpd. A were studied against induced infestations of Ixodes ricinus ticks in cats. Three treatment groups with six cats per group were randomly allocated: Group 1—Control, untreated; Group 2—Cmpd. A (2.5% w/v in DMI) at 0.1 ml/kg body weight (2.5 mg/kg); and Group 3—Cmpd. A (5.0% w/v in DMI) at 0.1 ml/kg body weight (5 mg/kg). Treatment was administered once on Day 0 and efficacy was assessed based on 48-hour tick (I. ricinus) counts following weekly experimental challenge from Day 7 on. […] In fact, the topical spot-on formulation offered substantial protection against I. ricinus ticks until the last day of assessment—Day 93. Due to limitations on tick availability 5 mg/kg was tested only up to Day 44 with 100% efficacy. The excellent long-lasting efficacy of the formulation of the invention against I. ricinus ticks in cats is very surprising and unexpected.

A. americanum = assay: Efficacious plasma concentration (EC90) against A. americanum ticks in dogs (Example 13); assay type: in vivo, Amblyomma americanum; details: for EC90 (concentration required to achieve 90% efficacy): plasma concentration
Protocol: Blood samples were collected from all dogs on Days −5, 0 (at 4 h and 12 h), 1, 2, 9, 16, 23, 30, 37 and 44. Plasma samples were analyzed for the concentration of Compound A using a LC/MS/MS method that was GLP validated for the analysis of the compound.
Plasma concentrations of Compound A from dogs in the studies of Examples 1 and 4 were determined according to the description in Example 1, and the plasma concentration versus % efficacy against A. americanum and D. variabilis were fit to a Sigmoidal Emax model. […] Since Compound A is systemically active, the lower concentration of the compound in the plasma required to achieve 90% efficacy from the topical compositions of the invention is surprising and unexpected.

In the case of `O=C(CNC(=O)c1ccc(C2=NOC(c3cc(Cl)cc(C(F)(F)F)c3)(C(F)(F)F)C2)c2ccccc12)NCC(F)(F)F` (stereo not shown) [Compound A, 4-[5-[3-chloro-5-(trifluoromethyl)phenyl]-4,5-dihydro-5-(trifluoromethyl)-3-isoxazolyl]-N-[2-oxo-2-[(2,2,2-trifluoroethyl)amino]ethyl]-1-naphthalanecarboxamide], the “reduced the infestation of ear mites” value (Otodectes cynotis; Group 2: 5.0% in 40% DES in DMI, 5 mg/kg) is reported as 99.0%, the “reduced the infestation of ear mites” value (Otodectes cynotis; Group 3: 10.0% in 40% DES in DMI, 10 mg/kg) is reported as 100.0% and the “% Reduction” value (Haematobia irritans; Day 35 (5 h)) is reported as 42.6%. The “% Reduction” value (Haematobia irritans; Day 36 (24 h)) was 90.4%, the “% Reduction” value (Ctenocephalides felis; Group 2: 6.0% in 40% DES/DMI, Day 1) was 100.0% and the “% Reduction” value (Ctenocephalides felis; Group 2: 6.0% in 40% DES/DMI, Day 8) was 100.0%. For the same molecule, the “% Reduction” value (Ctenocephalides felis; Group 2: 6.0% in 40% DES/DMI, Day 15) was 100.0%, the “% Reduction” value (Ctenocephalides felis; Group 2: 6.0% in 40% DES/DMI, Day 22) was 100.0% and the “% Reduction” value (Ctenocephalides felis; Group 2: 6.0% in 40% DES/DMI, Day 29) was 100.0%. For the same molecule, the “% Reduction” value (Ctenocephalides felis; Group 2: 6.0% in 40% DES/DMI, Day 36) was 100.0%, the “% Reduction” value (Ctenocephalides felis; Group 2: 6.0% in 40% DES/DMI, Day 43) was 99.2% and the “% Reduction” value (Ctenocephalides felis; Group 3: 12% in 40% DES/DMI, Day 1) was 100.0%. For the same molecule, the “% Reduction” value (Ctenocephalides felis; Group 3: 12% in 40% DES/DMI, Day 8) was 100.0%, the “% Reduction” value (Ctenocephalides felis; Group 3: 12% in 40% DES/DMI, Day 15) was 100.0% and the “% Reduction” value (Ctenocephalides felis; Group 3: 12% in 40% DES/DMI, Day 22) was 100.0%. The “% Reduction” value (Ctenocephalides felis; Group 3: 12% in 40% DES/DMI, Day 29) was 100.0%, the “% Reduction” value (Ctenocephalides felis; Group 3: 12% in 40% DES/DMI, Day 36) was 100.0% and the “% Reduction” value (Ctenocephalides felis; Group 3: 12% in 40% DES/DMI, Day 43) was 100.0%. For the same molecule, the “efficacy against I. ricinus” value (Ixodes ricinus; 5 mg/kg, up to Day 44) was 100%, the “prevention of the infestation of I. ricinus” value (Ixodes ricinus; 2.5 mg/kg, until Day 56) was “completely prevented” and the “prevention of the infestation of I. ricinus” value (Ixodes ricinus; 2.5 mg/kg, until at least Day 77) was over 90%. The “% Reduction Ticks” value (Ixodes ricinus; Group 2: 2.5% w/v in DMI, 2.5 mg/kg, Day 2) was 23.71%, the “% Reduction Ticks” value (Ixodes ricinus; Group 2: 2.5% w/v in DMI, 2.5 mg/kg, Day 9) was 100.00% and the “% Reduction Ticks” value (Ixodes ricinus; Group 2: 2.5% w/v in DMI, 2.5 mg/kg, Day 23) was 99.60%. The “% Reduction Ticks” value (Ixodes ricinus; Group 2: 2.5% w/v in DMI, 2.5 mg/kg, Day 30) was 100.00%, the “% Reduction Ticks” value (Ixodes ricinus; Group 2: 2.5% w/v in DMI, 2.5 mg/kg, Day 37) was 99.58% and the “% Reduction Ticks” value (Ixodes ricinus; Group 2: 2.5% w/v in DMI, 2.5 mg/kg, Day 44) was 100.00%. The “% Reduction Ticks” value (Ixodes ricinus; Group 2: 2.5% w/v in DMI, 2.5 mg/kg, Day 51) was 100.00%, the “% Reduction Ticks” value (Ixodes ricinus; Group 2: 2.5% w/v in DMI, 2.5 mg/kg, Day 58) was 100.00% and the “% Reduction Ticks” value (Ixodes ricinus; Group 2: 2.5% w/v in DMI, 2.5 mg/kg, Day 65) was 99.02%. The “% Reduction Ticks” value (Ixodes ricinus; Group 2: 2.5% w/v in DMI, 2.5 mg/kg, Day 72) was 99.21%, the “% Reduction Ticks” value (Ixodes ricinus; Group 2: 2.5% w/v in DMI, 2.5 mg/kg, Day 79) was 95.54% and the “% Reduction Ticks” value (Ixodes ricinus; Group 2: 2.5% w/v in DMI, 2.5 mg/kg, Day 86) was 84.92%. The “% Reduction Ticks” value (Ixodes ricinus; Group 2: 2.5% w/v in DMI, 2.5 mg/kg, Day 93) was 76.65%, the “% Reduction Ticks” value (Ixodes ricinus; Group 3: 5.0% w/v in DMI, 5 mg/kg, Day 2) was 70.27% and the “% Reduction Ticks” value (Ixodes ricinus; Group 3: 5.0% w/v in DMI, 5 mg/kg, Day 9) was 100.00%. The “% Reduction Ticks” value (Ixodes ricinus; Group 3: 5.0% w/v in DMI, 5 mg/kg, Day 23) was 100.00%, the “% Reduction Ticks” value (Ixodes ricinus; Group 3: 5.0% w/v in DMI, 5 mg/kg, Day 30) was 100.00% and the “% Reduction Ticks” value (Ixodes ricinus; Group 3: 5.0% w/v in DMI, 5 mg/kg, Day 37) was 100.00%. For the same molecule, the “% Reduction Ticks” value (Ixodes ricinus; Group 3: 5.0% w/v in DMI, 5 mg/kg, Day 44) was 100.00%, the “concentration required to achieve 90% efficacy, lower than the concentration required from oral administration” value (A. americanum; dogs, topical vs oral) was “about 42%” and the “EC90 (concentration required to achieve 90% efficacy)” value (A. americanum; dogs, topical compositions, Sigmoidal Emax model) was 0.092 µg/mL (≈ 0.147 µM). The “EC90 (concentration required to achieve 90% efficacy)” value (A. americanum; oral dosage form) was 0.158 µg/mL (≈ 0.252 µM).
